In this experiment the test system is HT29 intrarenal xenograft, nude mice, tumor weight change. Kind of experiment: NCI In Vivo Anticancer Drug Screen. Data for tumor model HT29;CX-1 Human Adenocarcinoma (MER+) (intrarenal inoculation) in NU/NU BALB/C (nude) mice. Conditions: endpoint: mean tumor weight change, higher = larger tumour. Here is the method:
The antitumor activity of compounds was measured in mice bearing transplantable tumors. Survival or tumor size were measured and the results are expressed as the measurement made in the treated group (T) divided by the measurement made in the vehicle treated control group (C). The tumor model used in this assay is HT29;CX-1 Human Adenocarcinoma (MER+) (intrarenal inoculation) in NU/NU BALB/C (nude) mice

[1] abbreviates: dose: 100.0 mg/kg/injection, schedule: Q04DX004 (sc), vehicle: saline.
Setting [2] is: dose: 3.0 mg/kg/injection, schedule: Q04DX004 (sc), vehicle: saline.
Setting [3] is: dose: 6.0 mg/kg/injection, schedule: Q04DX004 (sc), vehicle: saline.
Where [4] appears, read: dose: 12.0 mg/kg/injection, schedule: Q04DX004 (sc), vehicle: saline.
The mark [5] stands for this setting: dose: 300.0 mg/kg/injection, schedule: Q04DX004 (sc), vehicle: saline.
[6] abbreviates: dose: 300.0 mg/kg/injection, schedule: Q04DX004 (sc), vehicle: Klucel (hydroxypropylcellulose) (HPC).
The mark [7] stands for this setting: dose: 600.0 mg/kg/injection, schedule: Q04DX004 (sc), vehicle: Klucel (hydroxypropylcellulose) (HPC).
The mark [8] stands for this setting: dose: 1200.0 mg/kg/injection, schedule: Q04DX004 (sc), vehicle: Klucel (hydroxypropylcellulose) (HPC).
Where [9] appears, read: dose: 1200.0 mg/kg/injection, schedule: Q04DX004 (sc), vehicle: saline with Tween-80.

Where “and” joins values, the source holds several entries; their conditions need not be identical. Identical values can stand only once. Results filed as inconclusive are left out.

`C/C=C/C=C/c1cc2cc3c(c(O)c2c(=O)[nH]1)C1(CC3)C(O)=c2c(=O)c3c(=O)cc(OC)c(=O)c=3c(=O)c2=C1O` (stereo unspecified): the T/C is, setting by setting: (dose: 6.0 mg/kg/injection, schedule: Q04DX004 (sc), vehicle: DMSO) 75 % of control; (dose: 12.0 mg/kg/injection, schedule: Q04DX004 (sc), vehicle: DMSO) 77 % of control; (dose: 24.0 mg/kg/injection, schedule: Q04DX004 (sc), vehicle: DMSO) 61 % of control; (dose: 48.0 mg/kg/injection, schedule: Q04DX004 (sc), vehicle: DMSO) 58 % of control.

For `Cc1nnc2ncccn12`, the T/C reads like this: under setting [1], 73 % of control and 84 % of control; (dose: 200.0 mg/kg/injection, schedule: Q04DX004 (sc), vehicle: saline) 69 % of control and 84 % of control; (dose: 400.0 mg/kg/injection, schedule: Q04DX004 (sc), vehicle: saline) 72 % of control and 76 % of control.

For `O=C(O)CC(NC(=O)CP(=O)(O)O)C(=O)O` (stereo unspecified), the T/C runs as follows: (dose: 25.0 mg/kg/injection, schedule: Q01DX010 (sc), vehicle: saline) 123 % of control; (dose: 50.0 mg/kg/injection, schedule: Q01DX010 (sc), vehicle: saline) 94 % of control; (dose: 100.0 mg/kg/injection, schedule: Q01DX010 (sc), vehicle: saline) 91 % of control; (dose: 200.0 mg/kg/injection, schedule: Q01DX010 (sc), vehicle: saline) 70 % of control.

As for `C[n+]1c(-c2cccc3ccccc23)c2cc(N)ccc2c2ccccc21`, the T/C reads like this: under setting [2], 119 % of control; under setting [3], 152 % of control; under setting [4], 78 % of control.

In the case of `CCOC(=O)C(N)CSC(=O)NC` (stereo unspecified), the T/C is 108 % of control (dose: 150.0 mg/kg/injection, schedule: Q04DX004 (ip), vehicle: saline); 58 % of control (dose: 150.0 mg/kg/injection, schedule: Q04DX004 (sc), vehicle: saline); 103 % of control (dose: 300.0 mg/kg/injection, schedule: Q04DX004 (ip), vehicle: saline); 75 % of control under setting [5]; 111 % of control (dose: 600.0 mg/kg/injection, schedule: Q04DX004 (ip), vehicle: saline); 59 % of control (dose: 600.0 mg/kg/injection, schedule: Q04DX004 (sc), vehicle: saline).

`COc1cc(C(=O)c2cocc2C(=O)c2ccc3c(c2)OCO3)cc(OC)c1OC`: the T/C is, setting by setting: under setting [6], 103 % of control; under setting [7], 57 % of control; under setting [8], 89 % of control; (dose: 2400.0 mg/kg/injection, schedule: Q04DX004 (sc), vehicle: Klucel (hydroxypropylcellulose) (HPC)) 66 % of control.

For the molecule `O=C(NC1CCCCC1)OCc1c(COC(=O)NC2CCCCC2)c(-c2ccc(Cl)c(Cl)c2)n2c1CCC2`, the T/C is, setting by setting: (dose: 150.0 mg/kg/injection, schedule: Q04DX004 (sc), vehicle: saline with Tween-80) 67 % of control; (dose: 300.0 mg/kg/injection, schedule: Q04DX004 (sc), vehicle: saline with Tween-80) 60 % of control; (dose: 600.0 mg/kg/injection, schedule: Q04DX004 (sc), vehicle: saline with Tween-80) 54 % of control; under setting [9], 65 % of control.

Take `O=P1(N(CCCl)CCCl)NCCCO1` (stereo unspecified): the T/C (dose: 60.0 mg/kg/injection, schedule: Q04DX004 (ip), vehicle: saline) was 62 % of control and 77 % of control and 83 % of control; the T/C under setting [1] is 19 % of control and 21 % of control.

With `O=P1(NCCCl)OCCCN1CCCl` (stereo unspecified), the T/C (dose: 75.0 mg/kg/injection, schedule: Q04DX004 (sc), vehicle: saline) is 68 % of control.

Regarding `O=S(=O)(O)O.[NH-]C1CCCCC1[NH-].[Pt+2]` (stereo unspecified), the T/C is 124 % of control (dose: 0.63 mg/kg/injection, schedule: Q01DX010 (sc), vehicle: dextrose); 83 % of control (dose: 1.25 mg/kg/injection, schedule: Q01DX010 (sc), vehicle: dextrose); 73 % of control (dose: 2.5 mg/kg/injection, schedule: Q01DX010 (sc), vehicle: dextrose).

As to `CCCNC1=C(C)C(=O)C2=C(C1=O)[C@H](COC(N)=O)[C@]1(OC)[C@@H]3N[C@@H]3CN21`, the T/C is 26 % of control (dose: 1.5 mg/kg/injection, schedule: Q04DX004 (sc), vehicle: saline); 91 % of control under setting [2]; 87 % of control and 91 % of control under setting [3]; 5 % of control and 26 % of control under setting [4].

As to `CCCCNc1ccc2nnc(C)n2n1`, the T/C by setting is: (dose: 150.0 mg/kg/injection, schedule: Q04DX004 (ip), vehicle: DMSO) 116 % of control; (dose: 150.0 mg/kg/injection, schedule: Q04DX004 (ip), vehicle: sodium bicarbonate) 86 % of control.

With `CN(C)N=Nc1cccc(C(N)=O)c1`, the T/C is, setting by setting: (dose: 25.0 mg/kg/injection, schedule: Q04DX004 (sc), vehicle: Klucel (hydroxypropylcellulose) (HPC)) 91 % of control; (dose: 50.0 mg/kg/injection, schedule: Q04DX004 (sc), vehicle: Klucel (hydroxypropylcellulose) (HPC)) 85 % of control; (dose: 100.0 mg/kg/injection, schedule: Q04DX004 (sc), vehicle: Klucel (hydroxypropylcellulose) (HPC)) 123 % of control.

As for `C[C@]12CCC(=O)C(O)=C1CC[C@@H]1[C@@H]2CC[C@]2(C)C(=O)CC[C@@H]12`, the T/C (dose: 150.0 mg/kg/injection, schedule: Q04DX004 (ip), vehicle: Klucel (hydroxypropylcellulose) (HPC)) is 84 % of control; the T/C (dose: 300.0 mg/kg/injection, schedule: Q04DX004 (ip), vehicle: Klucel (hydroxypropylcellulose) (HPC)) was 94 % of control; the T/C (dose: 600.0 mg/kg/injection, schedule: Q04DX004 (ip), vehicle: Klucel (hydroxypropylcellulose) (HPC)) is 67 % of control; the T/C (dose: 1200.0 mg/kg/injection, schedule: Q04DX004 (ip), vehicle: Klucel (hydroxypropylcellulose) (HPC)) was 84 % of control.

Regarding `COc1cc([C@@H]2c3cc4c(cc3[C@@H](OC3OC5CO[C@@H](c6cccs6)OC5C(O)C3O)[C@H]3COC(=O)[C@H]23)OCO4)cc(OC)c1O` (stereo partly specified), the T/C was 225 % of control (dose: 8.0 mg/kg/injection, schedule: Q01DX010 (sc), vehicle: saline); 221 % of control (dose: 16.0 mg/kg/injection, schedule: Q01DX010 (sc), vehicle: saline); 189 % of control (dose: 32.0 mg/kg/injection, schedule: Q01DX010 (sc), vehicle: saline); 191 % of control (dose: 33.0 mg/kg/injection, schedule: Q01DX010 (sc), vehicle: saline); 60 % of control (dose: 66.0 mg/kg/injection, schedule: Q01DX010 (sc), vehicle: saline); 151 % of control (dose: 132.0 mg/kg/injection, schedule: Q01DX010 (sc), vehicle: saline). Under “dose: 264.0 mg/kg/injection, schedule: Q01DX010 (sc), vehicle: saline”, the T/C was 38 % of control.

Take `O=[N+]([O-])c1nccn1CC(O)CO` (stereo unspecified): the T/C was 86 % of control under setting [5]; 81 % of control (dose: 1200.0 mg/kg/injection, schedule: Q04DX004 (sc), vehicle: saline); 112 % of control (dose: 2400.0 mg/kg/injection, schedule: Q04DX004 (sc), vehicle: saline).

For the molecule `CN=C(NC#N)NCCSCc1nc[nH]c1C`, the T/C (dose: 225.0 mg/kg/injection, schedule: Q04DX004 (sc), vehicle: Klucel (hydroxypropylcellulose) (HPC)) was 75 % of control; the T/C (dose: 450.0 mg/kg/injection, schedule: Q04DX004 (sc), vehicle: Klucel (hydroxypropylcellulose) (HPC)) was 99 % of control; the T/C (dose: 900.0 mg/kg/injection, schedule: Q04DX004 (sc), vehicle: Klucel (hydroxypropylcellulose) (HPC)) is 92 % of control.

As to `OC1(CSc2ccccc2)CCCCC1`, the T/C was 65 % of control under setting [9] and 68 % of control (dose: 2400.0 mg/kg/injection, schedule: Q04DX004 (sc), vehicle: saline with Tween-80).

Consider `CC1=C/C(O)CC(=O)Cc2nc(co2)C(=O)N2CCC=C2C(=O)OC(C(C)C)C(C)/C=C\C(=O)NC/C=C\1` (stereo unspecified), for which the T/C was 66 % of control (dose: 150.0 mg/kg/injection, schedule: Q04DX004 (sc), vehicle: Klucel (hydroxypropylcellulose) (HPC)); 92 % of control under setting [6]; 54 % of control under setting [7]; 85 % of control under setting [8].

For the origin of these results see PubChem BioAssay AID208 (DTP/NCI, 2004).
